Experimental data taken from patent US20250064799A1, “ORAL FORMULATIONS OF LEVOSIMENDAN FOR TREATING PULMONARY HYPERTENSION WITH HEART FAILURE WITH PRESERVED EJECTION FRACTION” (Tenax Therapeutics, Inc., priority 2021, published 2025).
“Also recorded” adds a separate entry of the source.

Tests used:
Format in all cases: in vivo, human
[1] = tested on: patients with PH-HFpEF; assay: Resting heart rate and systolic arterial blood pressure, I.V. to oral levosimendan transition study
Method: Once that dose is determined, the study is identical with respect to the protocol. Since the I.V. formulation is weight based, and bypasses issues of bioavailability that may be affected by drug absorption, a dose escalation strategy is being adopted, guided by the individual patient response and any adverse events that may occur. Thus, the measurement of a six-minute walk test and patient questionnaire before and after the transition was to ensure that the patient continues to benefit. In addition, the monitoring of the patients' blood pressure and heart rate each day was to ensure that the oral dose remains safe.
(§1) The following considerations justified amending the TNX-LVO-05 study protocol: • 1. The amended TNX-LVO-05 protocol included the same patients enrolled in the original study. This was not a new study of the patients currently enrolled. This was open label, with no blinding of patients or physicians, and no control group. • 2. The scope and purpose of the study was unchanged, with the exception that it offered the further extension of treatment allowed by the transition to oral therapy (See item #4). • 3. The amendment clearly delineated a stepwise and thoughtful titration of patients from their intravenous to oral levosimendan to ensure the safe and effective transition of their levosimendan regimen. • a. Patients were started on 1 mg daily, representing a dose generally less than half their total weekly weight-based dose regimen. • b. Patients were titrated based on tolerance to the daily levosimendan paying attention to their symptoms of PH-HFpEF, and special attention to specific adverse events of interest, heart rate and blood pressure. A daily diary captured patient vitals and symptoms to aid their physician in titrating patients at two-week intervals. • c. Patient response also was evaluated by clinical measures to provide the physician with additional information on the patient's response. • d. While most patients were expected to receive 2-3 mg daily at the conclusion of the transition study, the dose escalation strategy was included to allow all patients to realize the same benefit as they did from the I.V. formulation. • e. To document the sustained efficacy of the oral formulation in these patients, patients had to undergo a six-minute walk test and patient questionnaire prior to and at the end of the transition study. • 4. The transition to oral levosimendan allowed for extension of the study from its initial two years to an additional three years. This offers these PH-HFpEF patients, with no other treatments available, to continue on a drug that they have responded to. • 5. The amendment required patients to sign a revised informed consent to ensure patients are completely informed concerning the transition amendment. Patients that preferred to continue with their weekly 24-hour I.V. regimen were allowed to continue through the initial two-year period of the study and then will be withdrawn.
Methods: Patients with PH-HFpEF who were in the open label extension study of the HELP Trial for more than 18 months volunteered to enroll in this transition protocol. Patients were initiated with 1 mg/day of oral levosimendan 5-7 days after the last IV levosimendan infusion. The oral dose was increased every 2 weeks by 1 mg/day to a maximum of 4 mg/day over an 8 week period. The highest daily dose was determined by the investigator based on clinical assessments of symptoms and side effects. The primary safety endpoints were change in resting heart rate and blood pressure from baseline to final study visit and all other adverse events. Secondary efficacy endpoints included change in six-minute walk distance (6MWD), serum brain natriuretic peptide (BNP) or NT-proBNP levels, and quality of life as assessed by Kansas City Cardiomyopathy Questionnaire clinical summary score (KCCQ-CS) and overall summary score (KCCQ-OS) from baseline to final study visit. […]

[2] = tested on: patients with PH-HFpEF; assay: Kansas City Cardiomyopathy Questionnaire (KCCQ), I.V. to oral levosimendan transition study
Method: (§2) Methods: Patients with PH-HFpEF who were in the open label extension study of the HELP Trial for more than 18 months volunteered to enroll in this transition protocol. Patients were initiated with 1 mg/day of oral levosimendan 5-7 days after the last IV levosimendan infusion. The oral dose was increased every 2 weeks by 1 mg/day to a maximum of 4 mg/day over an 8 week period. The highest daily dose was determined by the investigator based on clinical assessments of symptoms and side effects. The primary safety endpoints were change in resting heart rate and blood pressure from baseline to final study visit and all other adverse events. Secondary efficacy endpoints included change in six-minute walk distance (6MWD), serum brain natriuretic peptide (BNP) or NT-proBNP levels, and quality of life as assessed by Kansas City Cardiomyopathy Questionnaire clinical summary score (KCCQ-CS) and overall summary score (KCCQ-OS) from baseline to final study visit. All comparisons were the baseline and at week 6-8 measurements at the highest daily dose of levosimendan.
• Change in six-minute walk distance (6MWD) from baseline to final study visit • Change in serum brain natriuretic peptide (BNP) or NT-proBNP levels from baseline to final study visit • Change in quality of life as assessed by Kansas City Cardiomyopathy Questionnaire clinical summary score (KCCQ-CS) and overall summary score (KCCQ-OS) from baseline to final study visit
All comparisons were the baseline and at week 6-8 measurements at the highest daily dose of levosimendan.

[3] = tested on: patients with PH-HFpEF; assay: Adverse events, tolerability and final dose, I.V. to oral levosimendan transition study; conditions: for SAEs attributed/related to study drug: 6-8 week transition
From the text: as §1
as §2, with “levosimendan. […]” for “levosimendan.”

[4] = baseline to final study visit (week 6-8), oral levosimendan 3-4 mg/day
[5] = baseline to final visit, oral levosimendan

Structure (SMILES): C[C@@H]1CC(=O)NN=C1c1ccc(NN=C(C#N)C#N)cc1 [levosimendan]
- mean change in resting heart rate [1, 4]: 4.9 (SD±7.5) beats/min
- mean change in systolic arterial blood pressure [1, 4]: 4.1 (SD±12.6) mm Hg
- Heart Rate Change from Baseline to Week 6 Oral, Mean ([1]; n=18): 6.9
- Heart Rate Change from Baseline to Week 6 Oral, Median ([1]; n=18): 5.5
- Heart Rate Change from Baseline to Week 6 Oral, Minimum ([1]; n=18): −9
- SBP Change from baseline to Week 6 - Oral, Maximum ([1]; n=18): 34
- SBP Change from baseline to Week 6 - Oral, Mean ([1]; n=18): 4.1
- SBP Change from baseline to Week 6 - Oral, Median ([1]; n=18): 1.5
- SBP Change from baseline to Week 6 - Oral, Minimum ([1]; n=18): −15
- KCCQ OVERALL SUMMARY, mean Δ [2, 5]: +3.7
- KCCQ PHYSICAL LIMITATION, mean Δ [2, 5]: +0.3
- KCCQ QUALITY OF LIFE, mean Δ [2, 5]: +4.2
- KCCQ SELF EFFICACY, mean Δ [2, 5]: −2.3
- KCCQ SOCIAL LIMITATION, mean Δ [2, 5]: +5.5
- KCCQ Symptom Burden, mean Δ [2, 5]: +6.3
- KCCQ Symptom Frequency, mean Δ [2, 5]: +3.1
- KCCQ Symptom Stability, mean Δ [2, 5]: +9.4
- KCCQ TOTAL SYMPTOM, mean Δ [2, 5]: +4.7
- mean KCCQ-CS score improvement ([2]; n=16, oral levosimendan): 2.5 points
- mean KCCQ-OS score improvement ([2]; n=16, oral levosimendan): 3.7 points
- mean KCCQ-TS score improvement ([2]; n=16, oral levosimendan): 4.7 points
- tolerability of transition to oral levosimendan ([3]; 6-8-week period, after >18 months of IV levosimendan): well tolerated without safety concerns
- other adverse events ([3]; 18 patients, oral levosimendan): No other adverse events
- serious adverse event not related to study drug ([3]; 18 patients, oral levosimendan, listed as study drug): One patient experienced a serious adverse event (SAE) unrelated to study drug; also recorded: One patient had a serious adverse event not related to the study drug
- SAEs attributed/related to study drug ([3]; oral levosimendan): no SAEs related
- SAEs attributed/related to study drug ([3]; oral levosimendan, listed as study drug): no SAEs were reported
